The source of these data is patent publication US20140213632A1, “HCV Combination Therapy” (Stella Aps, priority 2011, published 2014).

Read-outs that look alike come from different tables or passages of the source.

For data set [1], the system named is HCV genotype 1b replicon NS3 A156T. It counts as cell-based. To be noted: EC50 mutant / EC50 wild-type; mean of two experiments (individual values); 72 hours. The method, then: (§1) The objective of this study was to evaluate the in vitro antiviral activity of miravirsen (SPC3649) against wild-type HCV genotype Ib replicon and NS3, NS5A and NS5B drug-resistant HCV genotype 1 b replicons in transient transfection assays utilizing Huh 7 cells. Method: The in vitro antiviral of miravirsen was evaluated against wild-type HCV genotype 1 b replicon and HCV genotype 1 b replicons constructed to contain key amino acid substitutions in NS3 protease (A156T, R155K), NS5B polymerase (S282T, M423I) and NS5A protein (Y93H) in transient transfection assays utilizing Huh 7 cells. […] Huh 7 cells were transfected with either the wild-type or the mutant RNA constructs by electroporation. Luciferase activity was measured 72 hours after compound treatment and EC50 values determined from dose-response curves. Fold resistance was expressed as the ratio of the EC50 for mutant HCV replicon to the EC50 for wild-type HCV replicon.
(§2) The in vitro antiviral of miravirsen was evaluated against wild-type HCV genotype Ib replicon and HCV replicons constructed to contain key amino acid substitutions in NS3 protease (A156T, R155K), NS5B polymerase (S282T, M423I) and NS5A protein (Y93H) in transient transfection assays. […] Huh 7 cells were transfected with either the wild type or the mutant RNA constructs by electroporation. Luciferase activity was measured 72 hours after compound treatment and EC50 values determined from dose-response curves. Fold resistance was expressed as the ratio of the EC50 for mutant HCV replicon to the EC50 for wild-type HCV replicon. Results are expressed as the mean of two individual experiments. In an initial set of experiments, the standard protocol was modified by adding compounds 24 hours after electroporation. […] In a third experiment cells were pretreated with miravirsen for 24 hours before electroporation with wild-type RNA constructs to determine if preincubation could result in increased miravirsen antiviral activity.

Data set [2] has as its system HCV genotype 1b replicon NS3 R155K. It counts as cell-based. To be noted: EC50 mutant / EC50 wild-type; mean of two experiments (individual values); 72 hours. The method, then: as §1, §2
Data set [3] has as its system HCV genotype 1b replicon NS5A Y93H. In kind it is cell-based. To be noted: EC50 mutant / EC50 wild-type; mean of two experiments (individual values); 72 hours. The method, then: as §1, §2
Data set [4] deals with HCV genotype 1b replicon NS5B M423I. In kind it is cell-based. To be noted: EC50 mutant / EC50 wild-type; mean of two experiments (individual values); 72 hours. The method, then: as §1, §2
For data set [5], the system named is HCV genotype 1b replicon NS5B S282T. It counts as cell-based. The following applies: EC50 mutant / EC50 wild-type; mean of two experiments (individual values); 72 hours. The method, then:
as §1, §2

The subject of data set [6] is HCV genotype Ib replicon in Huh-luc/neo-ET cells. It counts as cell-based, HCV genotype 1b. The following applies: for interaction: SPC3649 with 2-methyl cytidine.
Description: The anti-viral efficacy and cellular toxicity of non-transfected antimiR oligonucleotide in combination with approved and experimental anti-HCV therapeutics (e.g. BMS-790052) (or other NS5A inhibitors), was determined in the reporter cell line Huh-luc/neo-ET. This cell line harbors the persistently replicating I389luc-ubi-neo/NS3-37ET replicon containing the firefly luciferase gene-ubiquitin-neomycin phosphotransferase fusion protein and EMCV IRES driven NS3-5B HCV coding sequences containing the ET tissue culture adaptive mutations (E1202G, T1208I, and K1846T). Eight dilutions of non-transfected antimiR oligonucleotide (bracketing the calculated EC50) were evaluated in triplicate on duplicate sets of three plates with five dilutions of each of the control compounds (bracketing the calculated EC50). One set of plates was used for the determination of cellular toxicity and the other set of plates was used for the determination of anti-viral efficacy. The efficacy and toxicity results was quantified with firefly luciferase activity and XTT dye reduction, respectively, and the results of the assay is imported into the Prichard and Shipman MacSynergy II software program. The MacSynergy II analysis includes calculation of the dose response of the two (or more) compounds when used alone followed by calculation of the expected additive level of antiviral inhibition or toxicity when the compounds are used together based on the individual dose response curves. The expected level of activity at each of the concentration data points was compared to the experimentally determined antiviral activity in the assay. The expected activity was subtracted from the realized activity, yielding a negative, zero or positive value. […]
The combination antiviral assays were performed using the reporter cell line Huh-luc/neo-ET, which contains a bicistronic HCV genotype Ib replicon. Combination data were analyzed using MacSynergy II software at the 95%, confidence interval. […]
Data set [7] has as its system Huh-luc/neo-ET cells. The method, then:
Eight dilutions of non-transfected antimiR oligonucleotide (bracketing the calculated EC50) were evaluated in triplicate on duplicate sets of three plates with five dilutions of each of the control compounds (bracketing the calculated EC50). One set of plates was used for the determination of cellular toxicity and the other set of plates was used for the determination of anti-viral efficacy. The efficacy and toxicity results was quantified with firefly luciferase activity and XTT dye reduction, respectively, and the results of the assay is imported into the Prichard and Shipman MacSynergy II software program. […] The expected level of activity at each of the concentration data points was compared to the experimentally determined antiviral activity in the assay. The expected activity was subtracted from the realized activity, yielding a negative, zero or positive value. […]
The cells were treated with trypsin and enumerated by staining with trypan blue and seeded into 96-well tissue culture plates at a cell culture density 5.0×10^3 cells per well in a volume of 85 f.IL per well and incubated at […] in an environment of 5% CO2 for 24 hours. […] Following incubation, the plates were assessed for anti-HCV activity by measurement of luciferase reporter activity and cellular cytotoxicity by XTT staining.

Take “5′-^mCs^ocsAs^otstsGs^oTs^ocsas^mCs^oas^mCs^ots^mCs^omCo-3′ (CCATTGTCACACTCC; all phosphorothioate, sugars by position and methylation of C not given here; further chemistry not fully specified) [miravirsen]”: in data set [1], the “Fold Resistance NS3 A156T” value is 1.0 (1.4, 0.5) fold. For the same molecule, the “Fold Resistance NS3 R155K” value in data set [2] is reported as 1.2 (1.9, 0.4) fold. For the same molecule, the “Fold Resistance NS5A Y93H” value in data set [3] is recorded as 0.9 (0.8, 0.9) fold. Besides, the “Fold Resistance NS5B M423I” value in data set [4] is reported as 1.7 (2.3, 1.0) fold. The “Fold Resistance NS5B S282T” value in data set [5] is 1.9 (2.6, 1.1) fold.

With `CC(C)(C)C#Cc1cc(N(C(=O)[C@H]2CC[C@H](C)CC2)[C@H]2CC[C@H](O)CC2)c(C(=O)O)s1` [VX-222], the “Fold Resistance NS5B M423I” value in data set [4] was 4.4 (3.6, 5.2) fold.

Regarding `CCC[C@H](NC(=O)[C@@H]1[C@H]2CCC[C@H]2CN1C(=O)[C@@H](NC(=O)[C@@H](NC(=O)c1cnccn1)C1CCCCC1)C(C)(C)C)C(=O)C(=O)NC1CC1` [Telaprevir, (1S,3aR,6aS)-2-[(2S)-2-[[(2S)-2-Cyclohexyl-2-(pyrazine-2-carbonylamino)acetyl]amino]-3,3-dimethylbutanoyl]-N-[(3S)-1-(cyclopropylamino)-1,2-dioxohexan-3-yl]-3,3a,4,5,6,6a-hexahydro-1H-cyclopenta[c]pyrrole-1-carboxamide], the “Fold Resistance NS3 R155K” value in data set [2] was 4.6 (5.0, 4.2) fold.

In the case of “5′-Ts·^oc^·sAs·^otsa^·s^mCs·^oTs·^oa^·stsAs·^otsGs·^oa^·s^mCs·^oA·^o-3′ [SPC4729]”, in data set [6] (ribavirin plus the named compound), the “overall interaction (antiviral)” value is on record as “antagonistic”. Besides, the “Cytotoxicity, Synergy vol” value in data set [7] is reported as 0.00/−44.3 μM^2%. Besides, the “Cytotoxicity, Antag Vol” value in data set [7] (Ribavirin plus the named compound, 95% confidence level) is reported as 0.00/−44.3 μM^2%.

Consider `C[C@@]1(O)[C@H](O)[C@@H](CO)O[C@H]1n1ccc(N)nc1=O` [2′-C-Methylcytidine], for which the interaction result is recorded as “slightly antagonistic interaction” in data set [6] (third replicate) and “positive interactions” in data set [6] (two of the assay replicates).
